From patent publication US7265152B2 (ViroPharma Incorporated, priority 2002, dated 2007)
Read-outs that look alike come from different tables or passages of the source.

Assays:
[1] = system: HCV replicon (BB7 sequence) in Huh-7-Clone A cells; test: HCV replicon assay: ELISA of NS5A protein in replicon-containing cells (Inhibition of Viral RNA Replication); assay type: cell-based; settings: Hepatitis C virus, HCV replicon assay, read-out: Replicon
Outline: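 Huh-7-Clone A cells carrying subgenomic BB7 HCV replicon (G418-selectable) incubated 72 h with compound. NS5A protein quantified by cell ELISA: glutaraldehyde fixation, anti-NS5A monoclonal plus HRP secondary, TMB read at OD 650 nm. EC50 derived from 8-point serial dilution dose curve.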

[2] = target: T1, HCV NS5B (Hepatitis C virus genotype 1b, UniProt Q9WMX2); test: Inhibition of viral RNA-dependent RNA polymerase (RdRp), in vitro biochemical assay; design: species or system HCV genotype 1b virus (BB7); settings: read-out: HCV pol-BB7 IC50
T1 construct: fusion protein, of which the carboxyl terminal 21 amino acids were removed to enhance its solubility; His tag (GSHHHHHH); made in house; host or cells: E. coli
Outline: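 Purified recombinant NS5B from a genotype 1b consensus (BB7), His-tagged, E. coli-expressed, with the C-terminal 21 residues deleted. Inhibition of RdRp activity in vitro was measured, and IC50 is the concentration giving 50% inhibition.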

[3] = HCV NS5B RdRp, BB7, activity class
[4] = ranges of 50% effective concentration (EC50)
[5] = HCV NS5B polymerase, BB7 (genotype 1b), values given as range classes A-D

Compound	EC50 ([1]; ranges of EC50) [nM]	IC50 [2, 3] [nM]	EC50 [1, 4] [nM]	IC50 [2, 5] [nM]
CNC(=O)c1c(-c2ccc(F)cc2)oc2cc(N(C)S(C)(=O)=O)c(OCC(=O)c3ccc(F)cc3)cc12 [Example 360, 2-(4-Fluoro-phenyl)-5-[2-(4-fluoro-phenyl)-2-oxo-ethoxy]-6-(methanesulfonyl-methyl-amino)-benzofuran-3-carboxylic acid methylamide]	< 1000	≤ 500	–	–
CNC(=O)c1c(-c2ccc(F)cc2)oc2cc(N(Cc3ccccc3)S(C)(=O)=O)c(OC(C)C)cc12 [Example 361, 6-(Benzyl-methanesulfonyl-amino)-2-(4-fluoro-phenyl)-5-isopropoxy-benzofuran-3-carboxylic acid methylamide]	< 1000	≤ 500	–	–
CCN(C)c1cc2oc(-c3ccc(F)cc3)c(C(=O)NC)c2c(Cl)c1OC [Example 362, 4-Chloro-6-(ethyl-methyl-amino)-2-(4-fluoro-phenyl)-5-methoxy-benzofuran-3-carboxylic acid methylamide]	< 10000	≤ 500	–	–
CCNc1cc2oc(-c3ccc(F)cc3)c(C(=O)NC)c2c(Cl)c1OC [Example 363, 4-Chloro-6-ethylamino-2-(4-fluoro-phenyl)-5-methoxy-benzofuran-3-carboxylic acid mehtylamide]	< 1000	≤ 500	–	–
CCNc1cc2oc(-c3ccc(F)cc3)c(C(=O)NC)c2cc1O [Example 364, 6-Ethylamino-2-(4-fluoro-phenyl)-5-hydroxy-benzofuran-3-carboxylic acid methylamide]	> 30000	500 to 5000	–	–
CCNc1cc2oc(-c3ccc(F)cc3)c(C(=O)NC)c2cc1OCCCBr [Example 365, 5-(3-Bromo-propoxy)-6-ethylamino-2-(4-fluoro-phenyl)-benzofuran-3-carboxylic acid methylamide]	< 1000	≤ 500	–	–
C=CCOc1cc2c(C(=O)NC)c(-c3ccc(F)cc3)oc2cc1NCC [Example 366, 5-Allyloxy-6-ethylamino-2-(4-fluoro-phenyl)-benzofuran-3-carboxylic acid methylamide]	< 1000	≤ 500	–	–
CCNc1cc2oc(-c3ccc(F)cc3)c(C(=O)NC)c2cc1OCCCOCC [Example 367, 5-(3-Ethoxy-propoxy)-6-ethylamino-2-(4-fluoro-phenyl)-benzofuran-3-carboxylic acid methylamide]	< 1000	≤ 500	–	–
CNC(=O)c1c(-c2ccc(F)cc2)oc2cc(C3CCCN3C(N)=O)c(OC)cc12 (stereo not shown) [Example 368, 2-[2-(4-Fluoro-phenyl)-5-methoxy-3-methylcarbamoyl-benzofuran-6-yl]-pyrrolidine-1-carboxylic acid amide]	< 1000	≤ 500	–	–
CNC(=O)c1c(-c2ccc(F)cc2)oc2cc(N(C)S(C)(=O)=O)c(OCC(C)=O)cc12 [Example 369, 2-(4-Fluoro-phenyl)-6-(methanesulfonyl-methyl-amino)-5-(2-oxo-propoxy)-benzofuran-3-carboxylic acid methylamide]	< 1000	≤ 500	–	–
CNC(=O)c1c(-c2ccc(F)cc2)oc2cc(N(C)S(C)(=O)=O)c(OCC(C)O)cc12 (stereo not shown) [Example 370, 2-(4-Fluoro-phenyl)-5-(2-hydroxy-propoxy)-6-(methanesulfonyl-methyl-amino)-benzofuran-3-carboxylic acid methylamide]	< 1000	≤ 500	–	–
CNC(=O)c1c(-c2ccc(F)cc2)oc2cc(N(C)S(C)(=O)=O)c(OCc3nnnn3C)cc12 [Example 371, 2-(4-Fluoro-phenyl)-6-(methanesulfonyl-methyl-amino)-5-(1-methyl-1H-tetrazol-5-ylmethoxy)-benzofuran-3-carboxylic acid methylamide]	< 1000	≤ 500	–	–
CNC(=O)c1c(-c2ccc(F)cc2)oc2cc(-c3cc(COC(C)C)on3)c(OC)cc12 [Example 372, 2-(4-Fluoro-phenyl)-6-(5-isopropoxymethyl-isoxazol-3-yl)-5-methoxy-benzofuran-3-carboxylic acid methylamide]	< 1000	≤ 500	–	–
CCN(CC)c1nc(COc2cc3c(C(=O)NC)c(-c4ccc(F)cc4)oc3cc2N(C)S(C)(=O)=O)ns1 [Example 373, 5-(5-Diethylamino-[1,2,4]thiadiazol-3-ylmethoxy)-2-(4-fluoro-phenyl)-6-(methanesulfonyl-methyl-amino)-benzofuran-3-carboxylic acid methylamide]	< 1000	≤ 500	–	–
CNC(=O)c1c(-c2ccc(F)cc2)oc2cc(N(C)S(C)(=O)=O)c(OCc3nsc(NCC4CC4)n3)cc12 [Example 374, 5-[5-(Cyclopropylmethyl-amino)-[1,2,4]thiadiazol-3-ylmethoxy]-2-(4-fluoro-phenyl)-6-(methanesulfonyl-methyl-amino)-benzofuran-3-carboxylic acid methylamide]	< 1000	≤ 500	–	–
CNC(=O)c1c(-c2ccc(F)cc2)oc2cc(C(C)(O)CN)c(OC(C)C)cc12 (stereo not shown) [Example 375, 6-(2-Amino-1-hydroxy-1-methyl-ethyl)-2-(4-fluoro-phenyl)-5-isopropoxy-benzofuran-3-carboxylic acid methylamide]	< 30000	500 to 5000	–	–
CNC(=O)c1c(-c2ccc(F)cc2)oc2cc(C(C)(C)N)c(OC(C)C)cc12 [Example 376, 6-(1-Amino-1-methyl-ethyl)-2-(4-fluoro-phenyl)-5-isopropoxy-benzofuran-3-carboxylic acid methylamide]	< 1000	≤ 500	–	–
CNC(=O)c1c(-c2ccc(F)cc2)oc2cc(C3CCCN3C(=O)NC)c(OC)cc12 (stereo not shown) [Example 377, 2-[2-(4-Fluoro-phenyl)-5-methoxy-3-methylcarbamoyl-benzofuran-6-yl]-pyrrolidine-1-carboxylic acid methylamide]	< 10000	≤ 500	–	–
CCNC(=O)c1c(-c2ccc(F)cc2)oc2cc(-c3c(C)noc3C)c(OC)cc12 [Example 378, 6-(3,5-Dimethyl-isoxazol-4-yl)-2-(4-fluoro-phenyl)-5-methoxy-benzofuran-3-carboxylic acid ethylamide]	< 1000	≤ 500	–	–
COc1cc2c(C(=O)NC(C)C)c(-c3ccc(F)cc3)oc2cc1-c1c(C)noc1C [Example 379, 6-(3,5-Dimethyl-isoxazol-4-yl)-2-(4-fluoro-phenyl)-5-methoxy-benzofuran-3-carboxylic acid isopropylamide]	> 30000	500 to 5000	–	–
COc1cc2c(C(=O)NC3CC3)c(-c3ccc(F)cc3)oc2cc1-c1c(C)noc1C [Example 380, 6-(3,5-Dimethyl-isoxazol-4-yl)-2-(4-fluoro-phenyl)-5-methoxy-benzofuran-3-carboxylic acid cyclopropylamide]	< 1000	≤ 500	–	–
CNC(=O)c1c(-c2ccc(F)cc2)oc2cc(C3(C)CNC(=O)O3)c(OC(C)C)cc12 (stereo not shown) [Example 381, 2-(4-Fluoro-phenyl)-5-isopropoxy-6-(5-methyl-2-oxo-oxazolidin-5-yl)-benzofuran-3-carboxylic acid methylamide]	< 1000	≤ 500	–	–
CNC(=O)c1c(-c2ccc(F)cc2)oc2cc(N(C)S(C)(=O)=O)c(OCC(=O)OC(C)(C)C)cc12 [Example 382, [2-(4-Fluoro-phenyl)-6-(methanesulfonyl-methyl-amino)-3-methylcarbamoyl-benzofuran-5-yloxy]-acetic acid tert-butyl ester]	–	–	< 1000	≤ 500
CNC(=O)c1c(-c2ccc(F)cc2)oc2cc(-c3nc(C)n[nH]3)c(OC)cc12 [Example 383, 2-(4-Fluoro-phenyl)-5-methoxy-6-(5-methyl-2H-[1,2,4]triazol-3-yl)-benzofuran-3-carboxylic acid methylamide]	–	–	< 10000	500 to 5000
CNC(=O)c1c(-c2ccc(F)cc2)oc2cc(C(C)(C)N)c(OC)cc12 [Example 384, 6-(1-Amino-1-methyl-ethyl)-2-(4-fluoro-phenyl)-5-methoxy-benzofuran-3-carboxylic acid methylamide]	–	–	< 30000	500 to 5000
CNC(=O)c1c(-c2ccc(F)cc2)oc2cc(C(C)(C)NC(C)=O)c(OC)cc12 [Example 385, 6-(1-Acetylamino-1-methyl-ethyl)-2-(4-fluoro-phenyl)-5-methoxy-benzofuran-3-carboxylic acid methylamide]	–	–	< 1000	≤ 500
CNC(=O)c1c(-c2ccc(F)cc2)oc2cc(N(C)S(C)(=O)=O)c(OCC(=O)O)cc12 [Example 386, [2-(4-Fluoro-phenyl)-6-(methanesulfonyl-methyl-amino)-3-methylcarbamoyl-benzofuran-5-yloxy]-acetic acid]	–	–	< 30000	≤ 500
CNC(=O)c1c(-c2ccc(F)cc2)oc2cc(-c3nc(C)nn3C)c(OC)cc12 [Example 387, 6-(2,5-Dimethyl-2H-[1,2,4]triazol-3-yl)-2-(4-fluoro-phenyl)-5-methoxy-benzofuran-3-carboxylic acid methylamide]	–	–	< 10000	500 to 5000
CNC(=O)c1c(-c2ccc(F)cc2)oc2cc(N(C)S(C)(=O)=O)c(OCc3nccs3)cc12 [Example 388, 2-(4-Fluoro-phenyl)-6-(methanesulfonyl-methyl-amino)-5-(thiazol-2-ylmethoxy)-benzofuran-3-carboxylic acid methylamide]	–	–	< 1000	≤ 500
